Results as given in patent US20260294922A1, “Inhibitors of JUN N-Terminal Kinases (JNK1, JNK2, and/or JNK3) and Mitogen-Activated Protein Kinases (MAPK8, MAPK9, and/or MAPK10) and Methods of Using Same” (Baylor College of Medicine, priority 2023, published 2026).
“And” between values parts separate entries of the source, which are not always exact repeats. Equal values may be shown once. “Also recorded” adds a separate entry of the source.

Assays:
JNK3 [1] = molecular target: T1, JNK3 (Homo sapiens, UniProt P53779); assay: JNK3 kinase (intrinsic ATPase, Kinase-Glo) assay; assay type: biochemical; conditions: Table 3a; read-out: Kd JNK3
T1 sequence (P53779 whole entry): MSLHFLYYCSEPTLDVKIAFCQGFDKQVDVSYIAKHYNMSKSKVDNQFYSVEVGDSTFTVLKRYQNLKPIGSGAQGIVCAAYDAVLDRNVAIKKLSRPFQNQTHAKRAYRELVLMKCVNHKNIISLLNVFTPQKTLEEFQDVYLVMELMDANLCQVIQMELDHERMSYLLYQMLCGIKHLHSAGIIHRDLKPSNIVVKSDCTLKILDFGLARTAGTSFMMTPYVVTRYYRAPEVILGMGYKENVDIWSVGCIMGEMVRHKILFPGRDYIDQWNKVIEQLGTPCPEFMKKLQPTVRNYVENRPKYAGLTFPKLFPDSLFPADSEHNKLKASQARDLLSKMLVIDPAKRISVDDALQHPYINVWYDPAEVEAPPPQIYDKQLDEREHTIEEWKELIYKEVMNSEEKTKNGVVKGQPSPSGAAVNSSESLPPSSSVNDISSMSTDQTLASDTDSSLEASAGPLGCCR

CLK2 = molecular target: T2, CLK2 (Homo sapiens, UniProt P49760); assay: ThermoFisher SelectScreen, CLK2; assay type: binding
T2 construct: purchased ThermoFisher (SelectScreen)
T2 sequence (P49760 whole entry): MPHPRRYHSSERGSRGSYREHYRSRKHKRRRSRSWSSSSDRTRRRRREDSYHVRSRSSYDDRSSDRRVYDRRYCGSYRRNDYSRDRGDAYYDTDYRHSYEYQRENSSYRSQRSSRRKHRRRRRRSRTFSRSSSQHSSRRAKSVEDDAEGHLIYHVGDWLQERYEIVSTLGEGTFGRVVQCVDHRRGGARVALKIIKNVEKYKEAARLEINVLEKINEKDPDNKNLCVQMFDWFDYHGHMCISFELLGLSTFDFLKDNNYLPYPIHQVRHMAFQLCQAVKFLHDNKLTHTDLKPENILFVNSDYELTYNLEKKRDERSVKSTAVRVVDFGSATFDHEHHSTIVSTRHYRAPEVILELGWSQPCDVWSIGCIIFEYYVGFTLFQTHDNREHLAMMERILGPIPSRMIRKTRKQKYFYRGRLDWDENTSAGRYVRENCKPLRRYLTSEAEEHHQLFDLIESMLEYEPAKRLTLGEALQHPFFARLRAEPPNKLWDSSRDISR

CSNK1A1 = molecular target: T3, CSNK1A1 (Homo sapiens, UniProt P48729); assay: ThermoFisher SelectScreen, CSNK1A1; assay type: binding; conditions: Table 4
T3 construct: purchased ThermoFisher (SelectScreen)
T3 sequence (P48729 whole entry): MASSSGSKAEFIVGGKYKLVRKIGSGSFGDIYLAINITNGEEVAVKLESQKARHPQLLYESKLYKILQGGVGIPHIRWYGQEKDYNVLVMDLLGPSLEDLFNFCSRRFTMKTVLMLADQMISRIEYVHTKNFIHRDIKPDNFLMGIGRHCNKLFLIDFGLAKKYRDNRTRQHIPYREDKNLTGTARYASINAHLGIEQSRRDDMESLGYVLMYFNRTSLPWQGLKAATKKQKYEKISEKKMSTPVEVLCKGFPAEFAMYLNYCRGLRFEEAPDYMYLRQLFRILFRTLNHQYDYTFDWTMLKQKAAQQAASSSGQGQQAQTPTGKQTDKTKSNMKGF
Method: (§1) To mitigate violation of the linear initial velocity principle, which is a problem in end-point assays when doing dose-responses, the enzyme concentration was carefully optimized, in a total assay volume of 25 μL. The assay was performed using 10 μM ATP, 0.02% Tween-20, kinase buffer from Cell Signaling (#9802) in white 384-well plates. The kinase reaction was done for 30 or 60 min at 30° C., and detection of leftover ATP was measured according to Promega's protocol. […] Fractional activities were obtained from normalized data. Non-linear regression (GraphPad Prism7) and a modified Morrison equation for tight binding was used to determine apparent Ki values for inhibitors, assuming no particular mode of inhibition. An orthogonal binding assay (LanthaScreen) was outsourced to ThermoFisher Scientific's SelectScreen Services to determine IC50 values.
(§2) One of the earliest compounds to be synthesized with favorable enzymatic activity towards JNK1 and JNK3 was CDD-2346. A KINOMEscan was performed for CDD-2346 to establish whether the selectivity of this chemical scaffold was suitable or required optimization. […] To confirm that the activity against each kinase was a true result and not a false positive, CDD-2346 was evaluated in kinase assays using ThermoFisher SelectScreen platform. The results from these assays are provided herein (Table 4). The important innovative steps described are the optimization of selectivity a) for JNK isoforms; b) for kinases considered “in-pathway”; and c) to avoid kinases considered “out-of-pathway”.

CSNK1G1 = molecular target: T4, CSNK1G1 (Homo sapiens, UniProt Q9HCP0); assay: ThermoFisher SelectScreen, CSNK1G1; assay type: binding
T4 construct: purchased ThermoFisher (SelectScreen)
T4 sequence (Q9HCP0 whole entry): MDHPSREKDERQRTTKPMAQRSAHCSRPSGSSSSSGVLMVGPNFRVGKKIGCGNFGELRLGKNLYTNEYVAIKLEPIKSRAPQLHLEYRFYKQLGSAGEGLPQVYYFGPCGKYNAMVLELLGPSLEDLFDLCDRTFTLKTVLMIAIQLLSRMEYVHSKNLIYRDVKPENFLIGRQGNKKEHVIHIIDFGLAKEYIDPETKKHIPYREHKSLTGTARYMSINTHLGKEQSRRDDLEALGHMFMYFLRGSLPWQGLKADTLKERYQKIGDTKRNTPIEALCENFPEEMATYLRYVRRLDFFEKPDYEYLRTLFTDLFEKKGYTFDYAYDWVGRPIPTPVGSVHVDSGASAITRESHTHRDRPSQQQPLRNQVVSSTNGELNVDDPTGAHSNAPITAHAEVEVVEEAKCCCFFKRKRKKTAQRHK
Method: as §1, §2
No activity of CDD-2728 was detected for Atypical, Mutant, or Lipid kinases. To confirm CDD-2728 inhibition results in the KINOMEscan analysis, individual binding assays were performed on the kinases to which CDD-2728 bound using ThermoFisher SelectScreen.

MEK5 = molecular target: T5, MEK5 (Homo sapiens, UniProt Q13163); assay: ThermoFisher SelectScreen, MEK5; assay type: binding; conditions: Table 4
T5 construct: purchased ThermoFisher (SelectScreen, outsourced service)
T5 sequence (Q13163 1-448): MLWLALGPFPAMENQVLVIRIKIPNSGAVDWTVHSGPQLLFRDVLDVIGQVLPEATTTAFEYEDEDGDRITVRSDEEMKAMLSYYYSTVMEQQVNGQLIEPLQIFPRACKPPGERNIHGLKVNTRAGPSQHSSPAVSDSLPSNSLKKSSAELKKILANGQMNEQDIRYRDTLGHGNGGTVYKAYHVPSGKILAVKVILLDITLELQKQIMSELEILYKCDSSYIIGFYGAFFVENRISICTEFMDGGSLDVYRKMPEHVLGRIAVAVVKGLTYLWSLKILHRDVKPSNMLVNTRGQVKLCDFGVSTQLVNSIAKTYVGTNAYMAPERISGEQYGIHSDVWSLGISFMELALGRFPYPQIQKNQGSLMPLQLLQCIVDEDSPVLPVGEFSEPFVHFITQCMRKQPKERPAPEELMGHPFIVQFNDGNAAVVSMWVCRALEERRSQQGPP
Method: as §1, §2

PHKG2 = molecular target: T6, PHKG2 (Homo sapiens, UniProt P15735); assay: ThermoFisher SelectScreen, PHKG2; assay type: binding; conditions: Table 4
T6 construct: purchased ThermoFisher (SelectScreen, outsourced service)
T6 sequence (P15735 1-406): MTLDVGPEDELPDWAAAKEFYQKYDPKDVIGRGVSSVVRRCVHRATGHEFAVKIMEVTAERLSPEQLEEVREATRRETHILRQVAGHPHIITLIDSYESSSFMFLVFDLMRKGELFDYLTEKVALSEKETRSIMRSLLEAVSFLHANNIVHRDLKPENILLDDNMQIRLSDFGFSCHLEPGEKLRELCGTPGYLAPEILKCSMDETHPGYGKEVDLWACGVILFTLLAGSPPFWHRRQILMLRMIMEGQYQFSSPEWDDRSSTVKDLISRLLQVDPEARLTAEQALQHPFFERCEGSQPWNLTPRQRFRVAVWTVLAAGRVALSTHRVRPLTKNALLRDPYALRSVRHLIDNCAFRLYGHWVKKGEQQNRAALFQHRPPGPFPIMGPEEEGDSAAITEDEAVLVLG
Method: as §1, §2

hVPS34 = molecular target: T7, hVPS34 (Homo sapiens, UniProt Q8NEB9); assay: ThermoFisher SelectScreen, hVPS34; assay type: binding; conditions: Table 4
T7 construct: purchased ThermoFisher (SelectScreen, outsourced service)
T7 sequence (Q8NEB9 whole entry): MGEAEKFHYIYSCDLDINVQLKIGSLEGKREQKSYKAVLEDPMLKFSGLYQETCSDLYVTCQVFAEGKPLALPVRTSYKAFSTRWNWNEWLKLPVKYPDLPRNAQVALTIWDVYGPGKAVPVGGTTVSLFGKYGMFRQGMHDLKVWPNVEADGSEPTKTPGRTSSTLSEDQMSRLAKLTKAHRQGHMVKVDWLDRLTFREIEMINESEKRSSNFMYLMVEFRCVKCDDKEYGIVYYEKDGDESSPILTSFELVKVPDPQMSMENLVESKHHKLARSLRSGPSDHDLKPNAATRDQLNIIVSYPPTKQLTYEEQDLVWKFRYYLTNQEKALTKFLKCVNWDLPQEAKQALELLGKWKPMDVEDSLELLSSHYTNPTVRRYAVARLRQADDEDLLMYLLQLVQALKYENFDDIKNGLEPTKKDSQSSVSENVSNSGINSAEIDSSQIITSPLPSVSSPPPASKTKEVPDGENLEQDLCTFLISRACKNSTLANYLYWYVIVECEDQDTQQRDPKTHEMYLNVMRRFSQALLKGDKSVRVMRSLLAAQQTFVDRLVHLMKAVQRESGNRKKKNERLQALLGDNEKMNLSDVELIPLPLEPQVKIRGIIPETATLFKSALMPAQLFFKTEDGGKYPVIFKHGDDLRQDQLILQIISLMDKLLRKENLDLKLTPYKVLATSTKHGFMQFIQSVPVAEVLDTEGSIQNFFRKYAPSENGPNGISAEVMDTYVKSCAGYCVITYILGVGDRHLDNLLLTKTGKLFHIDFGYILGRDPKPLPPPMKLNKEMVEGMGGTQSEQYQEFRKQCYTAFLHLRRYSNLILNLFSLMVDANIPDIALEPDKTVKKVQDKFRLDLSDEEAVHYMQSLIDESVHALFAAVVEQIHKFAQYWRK
Method: as §1, §2

JNK3 [2] = molecular target: T1, JNK3; assay: ThermoFisher SelectScreen, JNK3; assay type: binding
[3] = In vitro metabolism in mouse liver microsomes; conditions: mouse, microsomes
Method: The target product profile seeks to deliver JNK inhibitor as a once daily oral administration. To prioritize compounds for further development, in vitro metabolism of several CDD JNK inhibitors were determined to approximate the plasma half-life and the rate of metabolism of the compounds in vivo.

[4] = Plasma ALT and AST after oral administration; assay type: in vivo, mouse; conditions: 24 h post-dose, individual mice 1-4
[5] = tested on: human endometriotic stromal cells (patient 143); assay: IL-1β-stimulated pro-inflammatory gene expression in primary endometriotic stromal cells, patient 143; assay type: cell-based; conditions: patient 143, relative to CDD-939
Source text: Similar to patient “50”, lower concentrations of CDD-2728 were required to reduce the proinflammatory response of IL-1β in stromal cells on these measured genes than in 12Z epithelial cells.
To confirm and further support the results described herein, endometriotic stromal cell cultures were established from a second patient. For compliance purposes, this set of cell culture results are identified as Eosis143. These are stromal cells obtained from the lining of an ovarian endometrioma cyst wall.

[6] = tested on: immortalized human endometriotic epithelial cells (iHEEC); assay: Phosphorylation of JNK and Jun in iHEEC; assay type: cell-based
Source text: FIG. 26A depicts the effects of CDD-2728 and CDD-3013 on phosphorylation of the JNK enzyme itself (i.e., representing MEK4 inhibition) and phosphorylation of pSer63 and pSer73 on the transcription factor Jun in immortalized human endometriotic epithelial cells (iHEEC). The HEEC cells are a well characterized cell line that are relevant for the evaluation of inflammatory endpoints and measures of epithelial-to-mesenchymal transitions (EMT). […] This is consistent with the potency relationships of CDD-2728 relative to bentamapimod observed in cytokine gene expression described above in iHEEC cells and primary human stromal endometriotic cells. […] SP600125 has been frequently described as a poorly-selective JNK-I but in this context provides additional confirmation of inhibition of the JNK target kinase for CDD-2728. […] This adds further support to the critical role of JNK-1 to the therapeutic effect of the JNK inhibitors of the disclosure.

| Kd (JNK3 [1]) [nM] | Kd (CLK2) [nM] | Kd (CSNK1A1) [nM] | Kd (CSNK1G1; Table 4) [nM] | Kd (MEK5) [nM] | Kd (PHKG2) [nM] | Kd (hVPS34) [nM] | Kd (JNK3 [2]) [nM] | half-life [3] [min] | Kd (CSNK1G1; Table 5) [nM] | Structure (SMILES) | ALT [4] | AST [4] | inhibition of IL-6, IL-8, MMP-3 and PTGS2 gene expression [5] | phosphorylation of JNK1 (P46) and JNK2 (P54) [6] | phosphorylation of Jun at pSer63 and pSer73 [6] |
| --- | --- | --- | --- | --- | --- | --- | --- | --- | --- | --- | --- | --- | --- | --- | --- |
| 0.86 ± 0.05 | 130 | 41300 | 14400 | 4040 | 1950 | 1140 | 4.34 | 10.8 |  | O=C(Nc1ccc(F)cc1)c1ccn2ncc(-c3cnc4[nH]ccc4c3)c2c1 [CDD-2486, N-(4-fluorophenyl)-3-(1H-pyrrolo[2,3-b]pyridin-5-yl)pyrazolo[1,5-a]pyridine-5-carboxamide] |  |  |  |  |  |
| 0.65 ± 0.16 | 34 | 85 | 133 | 579 | 188 | 109 | 0.65 | 68.7 |  | CNCc1ccc(NC(=O)c2ccn3ncc(-c4cnc5[nH]ccc5c4)c3c2)cc1 [CDD-2346, N-(4-((methylamino)methyl)phenyl)-3-(1H-pyrrolo[2,3-b]pyridin-5-yl)pyrazolo[1,5-a]pyridine-5-carboxamide] |  |  |  |  |  |
|  | 240 |  |  |  |  |  |  | 85.2 | 4400 | CN(C)C(=O)c1cc(NC(=O)c2cc3c(-c4cnc5[nH]ccc5c4)cccc3s2)ccc1O [CDD-2728, N-(3-(dimethylcarbamoyl)-4-hydroxyphenyl)-4-(1H-pyrrolo[2,3-b]pyridin-5-yl)benzo[b]thiophene-2-carboxamide] | 43.49 IU/L and 21.92 IU/L and 36.24 IU/L and 30.94 IU/L | 69.13 IU/L and 76.02 IU/L and 61.79 IU/L and 41.64 IU/L | at lower doses than was required for inhibition of expression of these genes by CDD-939; also recorded: superior to bentamapimod in efficacy of suppression and potency | inhibits phosphorylation of JNK1 (P46) and JNK2 (P54) | more effectively than CDD-939 |
| 0.45 ± 0.04 | 17 | 70.5 | 52 | 547 | 110 | 255 | 0.45 | 16.6 |  | CN(C)Cc1ccc(NC(=O)c2ccn3ncc(-c4cnc5[nH]ccc5c4)c3c2)cc1 [CDD-2482, N-(4-((dimethylamino)methyl)phenyl)-3-(1H-pyrrolo[2,3-b]pyridin-5-yl)pyrazolo[1,5-a]pyridine-5-carboxamide] |  |  |  |  |  |
